This note sets out measurements from ChEMBL document CHEMBL5030547, “Synthesis and biological studies of new piperidino-1,2,3-triazole hybrids with 3-aryl isoxazole side chains” (Bioorg Med Chem Lett, 2021).

By pIC50 is commonly meant the IC50 on a negative log10 scale, so that one unit is a factor of ten. As usually defined, the inhibition is the drop in the measured response relative to a control, in per cent. A high value points to a response far below the control.

pIC50: −log10 of the molar value.

The test system of one assay is Huh-7. Description: Cytotoxicity against human Huh-7 cells assessed as reduction in cell viability after 48 hrs. It counts as functional, cell-based. Particulars: Huh-7, 48 h.
In another assay the test system is Caco-2. Description: Cytotoxicity against human Caco-2 cells assessed as reduction in cell viability after 48 hrs. Format: functional, cell-based. The conditions noted are these: Caco-2, 48 h.
A further assay has as its system MDA-MB-231. Description: Cytotoxicity against human MDA-MB-231 cells assessed as reduction in cell viability after 48 hrs. It counts as functional, cell-based. The conditions noted are these: MDA-MB-231, 48 h.
The subject of a further assay is MDA-MB-468. Description: Cytotoxicity against human MDA-MB-468 cells assessed as reduction in cell viability after 48 hrs. Format: functional, cell-based. The conditions noted are these: MDA-MB-468, 48 h.
A further assay deals with HCT-116. Description: Cytotoxicity against human HCT-116 cells assessed as reduction in cell viability after 48 hrs. Format: functional, cell-based. Particulars: HCT-116, 48 h.
In a further assay the test system is PC-3. Description: Cytotoxicity against human PC-3 cells assessed as reduction in cell viability after 48 hrs. Format: functional, cell-based. Particulars: PC-3, 48 h.
In assay [1] the test system is MCF7. Description: Cytotoxicity against human MCF7 cells assessed as reduction in cell viability after 48 hrs. It counts as functional, cell-based. The conditions noted are these: MCF7, 48 h.
In a further assay the test system is Fibroblast. Description: Cytotoxicity against human skin fibroblast cells assessed as reduction in cell viability after 48 hrs. It counts as cell-based.
For assay [2], the system named is MCF7. Description: Inhibition of Bcl-XL- PUMA protein-protein interaction in human MCF7 cells at 20 uM incubated for overnight by BRET assay relative to control. It counts as cell-based. For orientation: BRET reads energy transfer from a luciferase to a nearby fluorophore.
A short description of assay [3]: Inhibition of Bcl-XL- PUMA protein-protein interaction in human MCF7 cells incubated for overnight by BRET assay. Format: cell-based.

Consider `O=[N+]([O-])c1ccc(CN2CCC(n3cc(CC(OCc4cc(-c5ccc(Br)cc5)no4)c4ccc(Br)cc4)nn3)CC2)cc1` (centres undefined), for which the pIC50 was 5.70 with Huh-7 (read-out: IC50); 5.52 with Caco-2; under 4.60 in the assay with MDA-MB-231; 5.30 in the assay on MDA-MB-468; under 4.60 with HCT-116; under 4.60 with PC-3. Also, the pIC50 in the assay on MCF7 [1] was 5.40; with Fibroblast it was under 4.60.

Regarding `O=[N+]([O-])c1ccc(CN2CCC(n3cc(CC(OCc4cc(-c5cccc(Br)c5)no4)c4ccc(Br)cc4)nn3)CC2)cc1` (centres undefined), the pIC50 in the assay with Huh-7 (read-out: IC50) is 5.52; with Caco-2, 5.30; in the assay with MDA-MB-231, under 4.60; with MDA-MB-468 it was under 4.60; with HCT-116, under 4.60; in the assay with PC-3, under 4.60. Besides, the results for the pIC50 in the assay with MCF7 [1] and in the assay with Fibroblast were 5.22 and under 4.60, respectively.

Consider `O=[N+]([O-])c1ccc(CN2CCC(n3cc(CC(OCc4cc(-c5ccc(F)cc5)no4)c4ccc(Br)cc4)nn3)CC2)cc1` (centres undefined), for which the pIC50 in the assay with Huh-7 (read-out: IC50) was 5.70; in the assay with Caco-2, 5.52; in the assay with MDA-MB-231 it was under 4.60; in the assay on MDA-MB-468 it was 5.40; in the assay on HCT-116, under 4.60; in the assay on PC-3, under 4.60. Moreover, the pIC50 was 5.15 in the assay with MCF7 [1] and under 4.60 with Fibroblast.

As to `COc1cccc(-c2cc(COC(Cc3cn(C4CCN(Cc5ccc([N+](=O)[O-])cc5)CC4)nn3)c3ccc(Br)cc3)on2)c1` (centres undefined), the pIC50 with Huh-7 (read-out: IC50) was 5.30; with Caco-2, 5.30; with MDA-MB-231, under 4.60; in the assay with MDA-MB-468, under 4.60; in the assay with HCT-116, under 4.60; in the assay with PC-3, under 4.60. Moreover, the values for the pIC50 in the assay with MCF7 [1] and in the assay on Fibroblast were 5.15 and under 4.60, respectively.

Regarding `COc1ccccc1-c1cc(COC(Cc2cn(C3CCN(Cc4ccc([N+](=O)[O-])cc4)CC3)nn2)c2ccc(Br)cc2)on1` (centres undefined), the negative logarithm of the IC50 (pIC50) in the assay on Huh-7 (read-out: IC50) is 5.30; in the assay with Caco-2 it was under 4.60; in the assay on MDA-MB-231, under 4.60; in the assay with MDA-MB-468, under 4.60; in the assay with HCT-116 it was under 4.60; in the assay with PC-3 it was under 4.60. Besides, the pIC50 in the assay on MCF7 [1] is 5.52; with Fibroblast, under 4.60.

For the compound `O=[N+]([O-])c1ccc(CN2CCC(n3cc(CC(OCc4cc(-c5ccccc5)no4)c4ccc(Br)cc4)nn3)CC2)cc1` (centres undefined), the pIC50 is 5.15 with Huh-7 (read-out: IC50); 5.15 in the assay on Caco-2; under 4.60 with MDA-MB-231; 5.52 with MDA-MB-468; under 4.60 in the assay with HCT-116; under 4.60 in the assay with PC-3. For the same compound, the negative-log IC50 (pIC50) in the assay with MCF7 [1] and with Fibroblast was under 4.60 in each case.

Consider `N#Cc1ccc(-c2cc(COC(Cc3cn(C4CCN(Cc5ccc([N+](=O)[O-])cc5)CC4)nn3)c3ccc(Br)cc3)on2)cc1` (centres undefined), for which the pIC50 was 5.30 with Huh-7 (read-out: IC50); 5.70 with Caco-2; under 4.60 with MDA-MB-231; 5.30 in the assay with MDA-MB-468; under 4.60 in the assay on HCT-116; 5.70 in the assay on PC-3. In addition, the pIC50 is 5.52 in the assay on MCF7 [1] and under 4.60 with Fibroblast.

`COc1cccc2c1C(=O)c1c(O)c3c(c(O)c1C2=O)C[C@@](O)(C(=O)CO)C[C@@H]3O[C@H]1C[C@H](N)[C@H](O)[C@H](C)O1` [DOXORUBICIN]: the pIC50 in the assay on Huh-7 (read-out: IC50) is 7.70; with MDA-MB-231 it was 7.40; in the assay on MDA-MB-468, 7.22; in the assay on HCT-116, 7.10; in the assay with MCF7 [1] it was 7.00; in the assay on Fibroblast it was 7.70.

As for `O=[N+]([O-])c1ccc(CN2CCC(n3cc(CC(OCc4cc(-c5ccccc5Br)no4)c4ccc(Br)cc4)nn3)CC2)cc1` (centres undefined), the pIC50 in the assay with Huh-7 (read-out: IC50) was under 4.60; in the assay on Caco-2, 5.52; in the assay with MDA-MB-231, under 4.60; with MDA-MB-468, under 4.60; in the assay on HCT-116, under 4.60; in the assay on PC-3 it was under 4.60. The results for the pIC50 with MCF7 [1] and in the assay on Fibroblast were 5.22 and under 4.60, respectively.

Regarding `N#Cc1cccc(-c2cc(COC(Cc3cn(C4CCN(Cc5ccc([N+](=O)[O-])cc5)CC4)nn3)c3ccc(Br)cc3)on2)c1` (centres undefined), the pIC50 in the assay with Huh-7 (read-out: IC50) was 5.52; in the assay with Caco-2, 5.52; in the assay with MDA-MB-231 it was under 4.60; in the assay on MDA-MB-468, under 4.60; with HCT-116, under 4.60; in the assay with PC-3, under 4.60. For the same compound, the pIC50 in the assay on MCF7 [1] was 5.70; in the assay with Fibroblast, under 4.60.

As to `O=[N+]([O-])c1ccc(CN2CCC(n3cc(CC(OCc4cc(-c5cccc(F)c5)no4)c4ccc(Br)cc4)nn3)CC2)cc1` (centres undefined), the pIC50 with Huh-7 (read-out: IC50) is 5.52; with Caco-2, 5.30; in the assay on MDA-MB-231, 5.30; with MDA-MB-468 it was 5.52; in the assay on HCT-116, 5.22; in the assay on PC-3 it was 5.05. The figures for the pIC50 in the assay on MCF7 [1] and in the assay with Fibroblast were 5.10 and 5.00, respectively.

Regarding `O=[N+]([O-])c1ccc(CN2CCC(n3cc(CC(OCc4cc(-c5ccccc5F)no4)c4ccc(Br)cc4)nn3)CC2)cc1` (centres undefined), the pIC50 with Huh-7 (read-out: IC50) is 5.70; in the assay with Caco-2, 5.40; in the assay with MDA-MB-231, 5.40; with MDA-MB-468 it was 5.40; with HCT-116 it was 5.05; in the assay on PC-3, 5.22. In addition, the pIC50 is 5.10 with MCF7 [1], under 4.60 in the assay with Fibroblast and 5.42 in [3]. In the assay with MCF7 [2], this compound came in with an inhibition of 10%.

With `CC[C@H](CO)Nc1nc(NCc2ccccc2)c2ncn(C(C)C)c2n1` [SELICICLIB], the pIC50 in the assay with Huh-7 was 5.05; in the assay with MDA-MB-231, 4.77; in the assay with MDA-MB-468 it was 4.74; in the assay with PC-3, 4.96; in the assay with Fibroblast, 4.82.

Take `COc1ccc(-c2cc(COC(Cc3cn(C4CCN(Cc5ccc([N+](=O)[O-])cc5)CC4)nn3)c3ccc(Br)cc3)on2)cc1` (centres undefined): the pIC50 in the assay on Huh-7 (read-out: IC50) is 5.70; in the assay with Caco-2, 5.52; in the assay on MDA-MB-231, under 4.60; in the assay on MDA-MB-468 it was 5.05; with HCT-116, under 4.60; with PC-3, 5.52. The values for the pIC50 in the assay with MCF7 [1] and in the assay with Fibroblast were 5.40 and under 4.60, respectively.
